*1 amine or outer side, *2 acyl side, *3 side chain or, on linkers, in order; H or OH if unused. Where a SMILES comes first, the peptide text is derived from it. Bridges are numbered along the chain shown (N, C = ends). [ ]: non-standard residue; d: D form. The star is where a group is joined. hPhe(3,5-F2-4-CF3) = N[C@@H](CCc1cc(F)c(C(F)(F)F)c(F)c1)C(=O)O; NPrPhe(4-CF3) = CCCN[C@@H](Cc1ccc(C(F)(F)F)cc1)C(=O)O; NMeGly(cPent) = CN[C@H](C(=O)O)C1CCCC1; X3 = CCC[C@](C)(N[*:1])C(=O)[*:2]; NMeD = CN[C@@H](CC(=O)O)C(=O)O; NMeL = CN[C@@H](CC(C)C)C(=O)O; Morpholide = C1CN(*)CCO1; Aze = O=C(O)[C@@H]1CCN1; Sar = CNCC(=O)O
Columns and labels:
HRAS wild-type protein = HRAS wild-type protein (Homo sapiens, UniProt P01112); experiment: Binding to HRAS by surface plasmon resonance (SPR), KD and KD ratio to KRAS
Procedure, shortened: (§1)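 Measured at 30°C: SPR with GDP-loaded, E. coli-expressed biotin-Avi RAS captured (~100–300 RU), ascending 75 s compound injections, HBS pH 7.4 with GDP, MgCl2, 4% DMSO. KD from 1:1 fit.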

[1] = tested on: human lung cancer strain NCI-H441; assay type: cell-based
Procedure, shortened: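 Signal came from […] measured per well once the reagent was added. Beforehand, cells were cultured at 37°C and 5% carbon dioxide on a compound series serially diluted in dimethyl sulfoxide.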

[2] = target: GDP-bound KRAS wild-type protein (Homo sapiens, UniProt P01116); experiment: Binding to KRAS by surface plasmon resonance (SPR), dissociation constant KD
Procedure, shortened: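 Compound binding is evaluated by SPR single-cycle kinetics, with concentrations added intermittently from low to high for 75 s each. Target surfaces carry GDP-loaded biotinylated Avi-RAS at about 100–300 RU, regenerated after each cycle; temperature 30°C. A 1:1 binding model gives KD.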

[3] = target: GDP-bound NRAS wild-type protein (Homo sapiens, UniProt P01111); experiment: Binding to NRAS by surface plasmon resonance (SPR), KD and KD ratio to KRAS
Procedure, shortened: as §1

[4] = ratio of KD for HRAS wild-type protein to KD for KRAS
[5] = ratio of KD for GDP-bound NRAS wild-type protein to KD for KRAS
[6] = ratio of the KD value with respect to HRAS wild-type protein to the KD value with respect to KRAS
[7] = Single Cycle Kinetics, 1:1 binding model
[8] = ratio of the KD value with respect to GDP-bound NRAS wild-type protein to the KD value with respect to KRAS

Chain of GDP-bound NRAS wild-type protein (P01111 whole entry): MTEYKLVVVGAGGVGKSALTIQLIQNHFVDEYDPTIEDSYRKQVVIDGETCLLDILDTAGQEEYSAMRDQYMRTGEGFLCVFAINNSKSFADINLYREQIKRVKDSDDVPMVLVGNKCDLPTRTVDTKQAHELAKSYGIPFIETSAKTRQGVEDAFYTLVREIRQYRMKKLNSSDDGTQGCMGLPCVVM
Chain of GDP-bound KRAS wild-type protein (P01116 1-188 isoform P01116-2): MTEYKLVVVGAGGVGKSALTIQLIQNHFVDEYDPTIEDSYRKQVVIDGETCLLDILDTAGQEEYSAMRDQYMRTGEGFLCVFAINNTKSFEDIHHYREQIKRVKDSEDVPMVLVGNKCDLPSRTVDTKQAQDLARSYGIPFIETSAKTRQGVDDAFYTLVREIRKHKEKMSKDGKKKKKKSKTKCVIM
Chain of HRAS wild-type protein (P01112 whole entry): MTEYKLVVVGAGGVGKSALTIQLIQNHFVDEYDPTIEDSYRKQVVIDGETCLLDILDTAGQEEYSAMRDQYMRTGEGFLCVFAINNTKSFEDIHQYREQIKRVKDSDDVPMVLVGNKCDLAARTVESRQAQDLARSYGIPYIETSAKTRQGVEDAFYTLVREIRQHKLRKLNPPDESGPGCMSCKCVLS

IC50 [1] [nM]	Kd ([2]; 1:1 binding model) [nM]	Kd [2, 7] [nM]	Kd ([2]; Single Cycle Kinetics) [nM]	Compound	HRAS /KRAS (HRAS wild-type protein; [4])	NRAS /KRAS [3, 5]	HRAS /KRAS (HRAS wild-type protein; [6])	NRAS /KRAS [3, 8]	HRAS /KRAS (HRAS wild-type protein; ratio of KD value for HRAS wild-type protein to KD value for KRAS (SPR))	NRAS /KRAS ([3]; ratio of KD value for GDP-bound NRAS wild-type protein to KD value for KRAS (SPR))
8.8	0.15			CCC[C@H]1C(=O)N[C@@H](C2CCCC2)C(=O)N(C)CC(=O)N(C)[C@H]2C/C=C\CCN(C2=O)[C@@H](Cc2ccc(C)cc2)C(=O)N(C)CC(=O)N[C@@H](CCc2ccc(C(F)(F)F)c(OC)c2)C(=O)N2C[C@H](OCC)C[C@H]2C(=O)NC2(CC(C)(C)C2)C(=O)N(C)[C@@H](CC(C)(C)C)C(=O)N(C)[C@H](C(=O)N(C)C)CC(=O)N1C [PP3005]	B (a compound having 3 or more and less than 10 is denoted as B)	A (a compound having 10 or more and less than 20 is denoted as A)				
216		2.7		CCO[C@@H]1C[C@H]2C(=O)NC3(CCC3)C(=O)N(C)[C@@H](C3CCCC3)C(=O)N(C)[C@H](C(=O)N(C)C)CC(=O)N(C)[C@@H](C)C(=O)N[C@@H]([C@H](C)CC)C(=O)N(C)CC(=O)N(C)[C@H]3CCCCCN(C3=O)[C@@H](Cc3ccc(C(F)(F)F)cc3)C(=O)N(C)CC(=O)N[C@@H](CCc3cc(F)c(C(F)(F)F)c(F)c3)C(=O)N2C1 [PP0729]			B (a compound having 3 or more and less than 10 is denoted as B)	B (a compound having 3 or more and less than 10 is denoted as B)		
9.3		0.79		CCCOC[C@H]1C(=O)N[C@@H]([C@@H](C)CC)C(=O)N(C2CC2)CC(=O)N(C)[C@H]2C/C=C\CCN(C2=O)[C@@H](CC2CCC(F)(F)CC2)C(=O)N(C)CC(=O)N[C@@H](CCc2ccc(C(F)(F)F)c(OC)c2)C(=O)N2C[C@H](OCC)C[C@H]2C(=O)N(C)C2(CCC2)C(=O)N(C)[C@@H](C2CCCC2)C(=O)N(C)[C@H](C(=O)N(C)C)CC(=O)N1C [PP2354]			A (a compound having 10 or more and less than 20 is denoted as A)	A (a compound having 10 or more and less than 20 is denoted as A)		
44.7		0.61		CCO[C@@H]1C[C@H]2C(=O)NC3(CCC3)C(=O)N(C)[C@@H](C3CCCC3)C(=O)N(C)[C@H](C(=O)N3CCOCC3)CC(=O)N(C)[C@@H](CC3CCC3)C(=O)N[C@@H]([C@@H](C)CC)C(=O)N(C)CC(=O)N(C)[C@H]3CCCCCN(C3=O)[C@@H](Cc3ccc(C(F)(F)F)cc3)C(=O)N(C)CC(=O)N[C@@H](CCc3cc(F)c(C(F)(F)F)c(F)c3)C(=O)N2C1 [PP0683]			B (a compound having 3 or more and less than 10 is denoted as B)	B (a compound having 3 or more and less than 10 is denoted as B)		
5.5	0.1			CCO[C@@H]1C[C@H]2C(=O)NC3(CC(C)(C)C3)C(=O)N(C)[C@@H](C3CCCC3)C(=O)N(C)[C@H](C(=O)N(C)C)CC(=O)N(C)[C@@H]([C@@H](C)OC)C(=O)N[C@@H]([C@@H](C)CC)C(=O)N(C)CC(=O)N(C)[C@H]3C/C=C\CCN(C3=O)[C@@H](Cc3ccc(C)cc3)C(=O)N(C)CC(=O)N[C@@H](CCc3ccc(C(F)(F)F)c(Cl)c3)C(=O)N2C1 [PP3209]	B (a compound having 3 or more and less than 10 is denoted as B)	A (a compound having 10 or more and less than 20 is denoted as A)				
38.8			0.32	CCO[C@@H]1C[C@H]2C(=O)NC3(CCC3)C(=O)N(C)[C@@H](C3CCCC3)C(=O)N(C)[C@H](C(=O)N3CCOCC3)CC(=O)N(C)[C@@H](CC(C)C)C(=O)N[C@@H]([C@@H](C)CC)C(=O)N(C)CC(=O)N(C)[C@H]3CCCCCN(C3=O)[C@@H](Cc3ccc(F)cc3)C(=O)N(C)CC(=O)N[C@@H](CCc3ccc(C(F)(F)F)c(Cl)c3)C(=O)N2C1 [PP0968]	B (a compound having 3 or more and less than 10 is denoted as B)	B (a compound having 3 or more and less than 10 is denoted as B)				
41.5		0.34		CCO[C@@H]1C[C@H]2C(=O)NC3(CC(C)(C)C3)C(=O)N(C)[C@@H](C(CC)CC)C(=O)N(C)[C@H](C(=O)N(C)C)CC(=O)N(C)[C@@H](CC(C)C)C(=O)N[C@@H]([C@@H](C)CC)C(=O)N(C)CC(=O)N(C)[C@H]3C/C=C\CCN(C3=O)[C@@H](Cc3ccc(C)cc3)C(=O)N(C)CC(=O)N[C@@H](CCc3ccc(C(F)(F)F)c(Cl)c3)C(=O)N2C1 [PP2148]			A (a compound having 10 or more and less than 20 is denoted as A)	A (a compound having 10 or more and less than 20 is denoted as A)		
61.4	0.6			CCO[C@@H]1C[C@H]2C(=O)NC3(CC(C)(C)C3)C(=O)N(C)[C@@H](C3CCCC3)C(=O)N(C)[C@H](C(=O)N(C)C)CC(=O)N(C)[C@@H]([C@@H](C)OC)C(=O)N[C@@H]([C@@H](C)CC)C(=O)N3CCC[C@H]3C(=O)N(C)[C@H]3C/C=C\CCN(C3=O)[C@@H](Cc3ccc(C)cc3)C(=O)N(C)CC(=O)N[C@@H](CCc3ccc(C(F)(F)F)c(OC)c3)C(=O)N2C1 [PP3213]	A (a compound having 10 or more and less than 20 is denoted as A)	A (a compound having 10 or more and less than 20 is denoted as A)				
91.9		3.3		CCC[C@H]1C(=O)N[C@@H](C2CCCC2)C(=O)N(C)CC(=O)N(C)[C@H]2C/C=C\CCN(C2=O)[C@@H](Cc2ccc(C)cc2)C(=O)N(C)CC(=O)N[C@@H](CCc2ccc(C(F)(F)F)c(Cl)c2)C(=O)N2C[C@H](OCC)C[C@H]2C(=O)NC2(CC(C)(C)C2)C(=O)N(C)[C@@H](CC(F)(F)F)C(=O)N(C)[C@H](C(=O)N(C)C)CC(=O)N1C [PP2192]			A (a compound having 10 or more and less than 20 is denoted as A)	A (a compound having 10 or more and less than 20 is denoted as A)		
6.5		0.051		CC[C@H](C)[C@@H]1NC(=O)[C@H](CC2CC2)N(C)C(=O)C[C@@H](C(=O)N(C)C)N(C)C(=O)[C@H](C2CCCC2)N(C)C(=O)C2(CCC2)N(C)C(=O)[C@@H]2C[C@@H](C)CN2C(=O)[C@H](CCc2cc(F)c(C(F)(F)F)c(F)c2)NC(=O)CN(C)C(=O)[C@H](Cc2ccc(C)cc2)N2CC/C=C\C[C@@H](C2=O)N(C)C(=O)CN(C)C1=O [PP1800]					A (a compound having 10 or more and less than 20 is denoted as A)	A (a compound having 10 or more and less than 20 is denoted as A)
177		3.2		CCOC[C@H]1C(=O)N[C@@H]([C@@H](C)CC)C(=O)N(C2CC2)CC(=O)N(C)[C@H]2C/C=C\CCN(C2=O)[C@@H](CC2CCC(F)(F)CC2)C(=O)N(C)CC(=O)N[C@@H](CCc2ccc(C(F)(F)F)c(OC)c2)C(=O)N2C[C@H](OCC)C[C@H]2C(=O)N(C)C2(CCC2)C(=O)N(C)[C@@H](C(CC)CC)C(=O)N(C)[C@H](C(=O)N(C)C)CC(=O)N1C [PP2351]			A (a compound having 10 or more and less than 20 is denoted as A)	A (a compound having 10 or more and less than 20 is denoted as A)		
417			9.2	CCCN1C(=O)CN(C)C(=O)[C@@H]2CCN2C(=O)[C@H]([C@@H](C)CC)NC(=O)[C@H](CC(C)C)N(C)C(=O)C[C@@H](C(=O)N2CCOCC2)N(C)C(=O)[C@H](C2CCCC2)N(C)C(=O)[C@](C)(CCC)NC(=O)[C@@H]2CCCN2C(=O)[C@H](CCc2cc(F)c(C(F)(F)F)c(F)c2)NC(=O)CN(C)C(=O)[C@@H]1Cc1ccc(C(F)(F)F)cc1 [PP0775] ([NMeL]I[Aze][Sar][NPrPhe(4-CF3)][Sar][hPhe(3,5-F2-4-CF3)]P[X3][NMeGly(cPent)][NMeD]-Morpholide; lactam N-11)	B (a compound having 3 or more and less than 10 is denoted as B)	B (a compound having 3 or more and less than 10 is denoted as B)				
19.1	0.32			CCC[C@H]1C(=O)N[C@@H](C2CCCCC2)C(=O)N(C)CC(=O)N(C)[C@H]2C/C=C\CCN(C2=O)[C@@H](Cc2ccc(C)cc2)C(=O)N(C)CC(=O)N[C@@H](CCc2ccc(C(F)(F)F)c(Cl)c2)C(=O)N2C[C@H](OCC)C[C@H]2C(=O)NC2(CC(C)(C)C2)C(=O)N(C)[C@@H](CC(C)(C)C)C(=O)N(C)[C@H](C(=O)N(C)C)CC(=O)N1C [PP3018]	B (a compound having 3 or more and less than 10 is denoted as B)	A (a compound having 10 or more and less than 20 is denoted as A)				
25.6			0.17	CCO[C@@H]1C[C@H]2C(=O)NC3(CCC3)C(=O)N(C)[C@@H](C3CCCC3)C(=O)N(C)[C@H](C(=O)N(C)C)CC(=O)N(C)[C@@H](CC)C(=O)N[C@@H]([C@@H](C)CC)C(=O)N(C)CC(=O)N(C)[C@H]3CCCCN(C3=O)[C@@H](Cc3ccc(C(F)(F)F)cc3)C(=O)N(C)CC(=O)N[C@@H](CCc3ccc4ccsc4c3)C(=O)N2C1 [PP0888]	B (a compound having 3 or more and less than 10 is denoted as B)	C (A compound having a KD ratio of 0.1 or more and less than 3 is denoted as C)				
88.9		0.73		CC[C@H](C)[C@@H]1NC(=O)[C@H](CC(C)C)N(C)C(=O)C[C@@H](C(=O)N2CCOCC2)N(C)C(=O)[C@H](C2CCCC2)N(C)C(=O)C2(CCCC2)NC(=O)[C@@H]2CCCN2C(=O)[C@H](CCc2ccc(C(F)(F)F)c(Cl)c2)NC(=O)CN(C)C(=O)[C@H](Cc2ccccc2)N2CCCCC[C@@H](C2=O)N(C)C(=O)CN(C)C1=O [PP0611]			B (a compound having 3 or more and less than 10 is denoted as B)	B (a compound having 3 or more and less than 10 is denoted as B)		

— patent EP4603105A1, “PHARMACEUTICAL COMPOSITION CONTAINING CYCLIC COMPOUND HAVING SELECTIVE KRAS INHIBITORY EFFECT AGAINST HRAS AND NRAS” (CHUGAI SEIYAKU KABUSHIKI KAISHA, priority 2022, dated 2024)
